{"source": "PubChem BioAssay AID1918952", "about": "(Molecular Pharmacology Branch, DTP, NCI, 2023)", "tested_on": "LG0703-F948-PDC complex spheroid viability", "assay": "Anticancer human tumor LG0703-F948-PDC patient-derived lung adenocarcinoma cell line growth inhibition", "conditions": "for IC50: curve of first compound; for viability, T/C: stronger effect = lower value", "procedure,_shortened": "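Drug combinations with the LSD1 inhibitor iadademstat tested on tumor cells co-cultured as spheroids with endothelial cells and mesenchymal stem cells. Concentrations descended in half-log increments from clinical Cmax or 10 microM.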"}
{"molecule": "CC[C@@]1(O)C(=O)OCc2c1cc1n(c2=O)Cc2cc3c(CN(C)C)c(O)ccc3nc2-1", "note": "+ NC1CC1c1ccc(-c2cccc(O)c2)cc1;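 also: spheroids exposed to agents for seven days before readout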;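 as to viability, T/C: 100% = DMSO vehicle control wells as normalization base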", "values": [{"measurement": "IC50", "setting": "second compound 0.1 µM", "result": "> 100", "unit": "nM"}, {"measurement": "IC50", "setting": "second compound 0.316 µM", "result": "> 100", "unit": "nM"}, {"measurement": "IC50", "setting": "second compound 1 µM", "result": "> 100", "unit": "nM"}, {"measurement": "IC50", "setting": "second compound 3.16 µM", "result": "> 100", "unit": "nM"}, {"measurement": "IC50", "setting": "second compound 10 µM", "result": "> 100", "unit": "nM"}, {"measurement": "viability, T/C", "setting": "second compound 0.1 µM, first compound 0.000316 µM", "result": 117, "unit": "%"}, {"measurement": "viability, T/C", "setting": "second compound 0.1 µM, first compound 0.001 µM", "result": 116, "unit": "%"}, {"measurement": "viability, T/C", "setting": "second compound 0.1 µM, first compound 0.00316 µM", "result": 106, "unit": "%"}, {"measurement": "viability, T/C", "setting": "second compound 0.1 µM, first compound 0.01 µM", "result": 84.8, "unit": "%"}, {"measurement": "viability, T/C", "setting": "second compound 0.1 µM, first compound 0.0316 µM", "result": 70, "unit": "%"}, {"measurement": "viability, T/C", "setting": "second compound 0.1 µM, first compound 0.1 µM", "result": 49.7, "unit": "%"}, {"measurement": "viability, T/C", "setting": "second compound 0.316 µM, first compound 0.000316 µM", "result": 118, "unit": "%"}, {"measurement": "viability, T/C", "setting": "second compound 0.316 µM, first compound 0.001 µM", "result": 107, "unit": "%"}, {"measurement": "viability, T/C", "setting": "second compound 0.316 µM, first compound 0.00316 µM", "result": 106, "unit": "%"}, {"measurement": "viability, T/C", "setting": "second compound 0.316 µM, first compound 0.01 µM", "result": 82.8, "unit": "%"}, {"measurement": "viability, T/C", "setting": "second compound 0.316 µM, first compound 0.0316 µM", "result": 64.5, "unit": "%"}, {"measurement": "viability, T/C", "setting": "second compound 0.316 µM, first compound 0.1 µM", "result": 55.3, "unit": "%"}, {"measurement": "viability, T/C", "setting": "second compound 1 µM, first compound 0.000316 µM", "result": 114, "unit": "%"}, {"measurement": "viability, T/C", "setting": "second compound 1 µM, first compound 0.001 µM", "result": 109, "unit": "%"}, {"measurement": "viability, T/C", "setting": "second compound 1 µM, first compound 0.00316 µM", "result": 97.8, "unit": "%"}, {"measurement": "viability, T/C", "setting": "second compound 1 µM, first compound 0.01 µM", "result": 95.2, "unit": "%"}, {"measurement": "viability, T/C", "setting": "second compound 1 µM, first compound 0.0316 µM", "result": 67.1, "unit": "%"}, {"measurement": "viability, T/C", "setting": "second compound 1 µM, first compound 0.1 µM", "result": 54.3, "unit": "%"}, {"measurement": "viability, T/C", "setting": "second compound 3.16 µM, first compound 0.000316 µM", "result": 108, "unit": "%"}, {"measurement": "viability, T/C", "setting": "second compound 3.16 µM, first compound 0.001 µM", "result": 97.2, "unit": "%"}, {"measurement": "viability, T/C", "setting": "second compound 3.16 µM, first compound 0.00316 µM", "result": 100, "unit": "%"}, {"measurement": "viability, T/C", "setting": "second compound 3.16 µM, first compound 0.01 µM", "result": 89.2, "unit": "%"}, {"measurement": "viability, T/C", "setting": "second compound 3.16 µM, first compound 0.0316 µM", "result": 81.9, "unit": "%"}, {"measurement": "viability, T/C", "setting": "second compound 3.16 µM, first compound 0.1 µM", "result": 71.5, "unit": "%"}, {"measurement": "viability, T/C", "setting": "second compound 10 µM, first compound 0.000316 µM", "result": 103, "unit": "%"}, {"measurement": "viability, T/C", "setting": "second compound 10 µM, first compound 0.001 µM", "result": 115, "unit": "%"}, {"measurement": "viability, T/C", "setting": "second compound 10 µM, first compound 0.00316 µM", "result": 107, "unit": "%"}, {"measurement": "viability, T/C", "setting": "second compound 10 µM, first compound 0.01 µM", "result": 76.5, "unit": "%"}, {"measurement": "viability, T/C", "setting": "second compound 10 µM, first compound 0.0316 µM", "result": 78.8, "unit": "%"}, {"measurement": "viability, T/C", "setting": "second compound 10 µM, first compound 0.1 µM", "result": 62.1, "unit": "%"}]}
